target: T1, Kv1.3 (Homo sapiens, UniProt P22001); experiment: Electrophysiology: planar patch-clamp of Kv1.3 currents, IC50 from steady state current amplitude; assay type: cell-based; settings: Kv1.3 electrophysiology, results according to Method D1, read-out: IC50 (Kv1.3 ephys steady state)
T1 construct: expressed in transfected cells; host or cells: CHO (Kv1.3/CHO)
Experimental: The inhibition data shown for the compounds of the list below was calculated using the steady state current amplitude at the end of the depolarising pulse in patch clamp evaluations (as described in the Biology Protocols: 1. Electrophysiology).
Kv1.x currents were measured in Kv1.3/CHO or Kv1.5/CHO cells using a planar electrode version (Nanion Technologies GMBH) of the patch-clamp technique. Whole-cell Kv1.x current transients were evoked by 500 ms depolarising voltage pulses to +40 mV from a holding potential of −80 mV applied at 10 s intervals for Kv1.5 and at 30 s intervals for Kv1.3 to allow adequate time for recovery from inactivation. Cells were continuously bathed in a buffered saline solution containing (mM): 160 NaCl, 4.5 KCl, 2 CaCl2, 1 MgCl2, 5 glucose, 10 HEPES, pH 7.4, 290-310 mOsm·Kg^−1. The internal (pipette) solution contained (mM): 10 NaCl, 70 KF, 75 KCl, 2 MgCl2, 10 HEPES, 10 EGTA, pH 7.2, 290-310 mOsm·Kg^−1. Series resistance compensation (60-80%) was applied to cells in which the peak current amplitude exceeded 2 nA.
Compound Preparation and Potency Assessment
Compounds were initially dissolved in DMSO to 10 mM. After further dilution in DMSO, compounds were finally diluted in bath solution 1/200 (to give a final DMSO concentration of 0.5%) and applied directly to the recording chamber. Compounds were added at increasing concentrations allowing ample time for steady state block to be achieved between each concentration. Each compound was tested at 5-6 different concentrations on 2-3 cells. Compound IC50 values were determined by fitting the average normalised reduction of either the current integral or the steady state current amplitude at the end of the 500 ms depolarising pulse obtained at each compound concentration to the Hill equation. The IC50 data reported herein is based on the steady state calculation.

T1 sequence (P22001 whole entry): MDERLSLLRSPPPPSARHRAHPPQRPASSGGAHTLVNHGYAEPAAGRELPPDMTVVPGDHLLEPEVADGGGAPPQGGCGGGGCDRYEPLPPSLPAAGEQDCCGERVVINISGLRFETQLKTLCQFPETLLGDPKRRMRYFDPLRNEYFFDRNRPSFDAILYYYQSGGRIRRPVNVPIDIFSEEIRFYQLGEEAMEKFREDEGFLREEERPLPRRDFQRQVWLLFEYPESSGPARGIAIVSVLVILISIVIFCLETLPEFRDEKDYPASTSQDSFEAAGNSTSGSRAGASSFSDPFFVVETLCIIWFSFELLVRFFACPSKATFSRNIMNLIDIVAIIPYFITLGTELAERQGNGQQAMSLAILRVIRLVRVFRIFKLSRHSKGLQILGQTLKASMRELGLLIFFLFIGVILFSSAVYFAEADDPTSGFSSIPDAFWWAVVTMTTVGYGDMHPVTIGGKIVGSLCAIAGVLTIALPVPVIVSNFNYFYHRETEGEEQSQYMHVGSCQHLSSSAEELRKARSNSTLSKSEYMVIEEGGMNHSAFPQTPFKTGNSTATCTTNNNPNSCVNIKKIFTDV

**Q.** For `CN1C2CCC1CC(N(C(=O)CS(=O)(=O)c1ccccc1)C(c1ccc(Cl)cc1)C1CC1)C2` (racemic) [Example 93, N-[(4-chlorophenyl)(cyclopropyl)methyl]-N-(8-methyl-8-azabicyclo[3.2.1]oct-3-yl)-2-(phenylsulfonyl)acetamide], which IC50 is on record?
**A.** 50 to 200 nM

**Q.** With `CC(CC(=O)N(Cc1ccc(C(F)(F)F)nc1)C(C)c1ccc2c(c1)CCC2)c1ccc(F)cc1` (single isomer, unassigned) [Compound 39, N-[1-(2,3-dihydro-1H-inden-5-yl)ethyl]-3-(4-fluorophenyl)-N-{[6-(trifluoromethyl)pyridin-3-yl]methyl}butanamide] as the compound, how does the IC50 read?
**A.** 50 to 200 nM

**Q.** With `CC(CC(=O)N(Cc1ccc(C(F)(F)F)nc1)C(C)c1ccc2c(c1)CCC2)c1ccc(F)cc1` (single isomer, unassigned) [Compound 40, N-[1-(2,3-dihydro-1H-inden-5-yl)ethyl]-3-(4-fluorophenyl)-N-{[6-(trifluoromethyl)pyridin-3-yl]methyl}butanamide] as the compound, how does the IC50 read?
**A.** 50 to 200 nM

**Q.** `C[C@H](CC(=O)N(Cc1ccccn1)C(c1ccc(Cl)cc1)C1CC1)c1ccc(F)cc1` (single isomer, unassigned) [Example 5] was tested. Which IC50 did it give?
**A.** < 50 nM

**Q.** For `C[C@@H](CC(=O)N(Cc1ccccn1)C(c1ccc(Cl)cc1)C1CC1)c1ccc(F)cc1` (single isomer, unassigned) [Example 8], which IC50 is on record?
**A.** < 50 nM

**Q.** For `CC(CC(=O)N(Cc1ccccn1)C(c1ccc2c(c1)S(=O)(=O)C(C)(C)O2)C1CC1)c1ccc(F)cc1` (single isomer, unassigned) [Example 74, N-[cyclopropyl(2,2-dimethyl-3,3-dioxido-1,3-benzoxathiol-5-yl)methyl]-3-(4-fluorophenyl)-N-(pyridin-2-ylmethyl)butanamide], which IC50 is on record?
**A.** < 50 nM

**Q.** How did the IC50 turn out when `C[C@@H](CC(=O)N(Cc1ccccn1)[C@H](c1ccc(Cl)cc1)C1CC1)S(=O)(=O)c1ccc(F)cc1` (single isomer, unassigned) [Example 76, N-[(4-chlorophenyl)(cyclopropyl)methyl]-3-[(4-fluorophenyl)sulfonyl]-N-(pyridin-2-ylmethyl)butanamide] was run?
**A.** < 50 nM

**Q.** With `CC(C)[C@@H](c1ccc(F)cc1)N(CCN1CCC(F)CC1)C(=O)C1(S(=O)(=O)c2ccc(F)cc2)CC1` (single isomer, unassigned) [Example 94] as the compound, how does the IC50 read?
**A.** 50 to 200 nM

**Q.** `O=C(CC1(c2ccc(F)cc2)CC1)N(Cc1ccccn1)[C@@H](c1ccc(Cl)cc1)C1CC1` (single isomer, unassigned) [Example 95, N-[(4-chlorophenyl)(cyclopropyl)methyl]-2-[1-(4-fluorophenyl)cyclopropyl]-N-(pyridin-2-ylmethyl)acetamide] was tested. Which IC50 did it give?
**A.** < 50 nM

**Q.** Which IC50 does the source give for `C[C@@H](CC(=O)N(Cc1ccccn1)C1(c2cccc(Br)c2)CC1)c1ccc(F)cc1` (single isomer, unassigned) [Example 96] here?
**A.** 50 to 200 nM

**Q.** With `CCS(=O)(=O)c1cccc([C@@H](C2CC2)N(Cc2ccc(C(F)(F)F)nc2)C(=O)[C@@H]2C[C@H]2c2ccc(F)cc2)c1` (single isomer, unassigned) [Example 99] as the compound, how does the IC50 read?
**A.** < 50 nM

**Q.** Which IC50 does the source give for `CC(C(=O)N(Cc1ccccn1)C(c1ccc(Cl)cc1)C1CC1)S(=O)(=O)c1ccc(F)cc1` (single isomer, unassigned) [Example 296] here?
**A.** < 50 nM

**Q.** For `CC(C(=O)N(Cc1ccccn1)C(c1ccc(Cl)cc1)C1CC1)S(=O)(=O)c1ccc(F)cc1` (single isomer, unassigned) [Example 297], which IC50 is on record?
**A.** 200 to 1000 nM

**Q.** With `O=C(C1C[C@H]1c1ccc(F)cc1)N(Cc1ccccn1)[C@@H](c1ccc(Cl)cc1)C1CC1` (stereo in doubt) [Example 13, N-[(4-chlorophenyl)(cyclopropyl)methyl]-2-(4-fluorophenyl)-N-(pyridin-2-ylmethyl)cyclopropanecarboxamide] as the compound, how does the IC50 read?
**A.** 50 to 200 nM

**Q.** `O=C([C@H]1C[C@@H]1c1ccc(F)cc1)N(Cc1ccccn1)[C@@H](c1ccc(Cl)cc1)C1CC1` (stereo in doubt) [Example 14, N-[(4-chlorophenyl)(cyclopropyl)methyl]-2-(4-fluorophenyl)-N-(pyridin-2-ylmethyl)cyclopropanecarboxamide] was tested. Which IC50 did it give?
**A.** < 50 nM

**Q.** Which IC50 does the source give for `O=C(C1CC1c1ccc(F)cc1)N(Cc1ccccn1)C(c1ccc(Cl)cc1)C1CC1` (stereo not drawn) [Example 10, N-[(4-chlorophenyl)(cyclopropyl)methyl]-2-(4-fluorophenyl)-N-(pyridin-2-ylmethyl)cyclopropanecarboxamide] here?
**A.** 50 to 200 nM

**Q.** `COc1ccccc1[C@H](C)N(Cc1ccccn1)C(=O)CCc1ccc(F)cc1` [Example 55, 3-(4-fluorophenyl)-N-[(1S)-1-(2-methoxyphenyl)ethyl]-N-(pyridin-2-ylmethyl)propanamide] was tested. Which IC50 did it give?
**A.** 200 to 1000 nM

**Q.** For `COc1ccccc1[C@@H](C)N(Cc1ccccn1)C(=O)CCc1cccc(C(F)(F)F)c1` [Example 61, N-[(1R)-1-(2-methoxyphenyl)ethyl]-N-(pyridin-2-ylmethyl)-3-[3-(trifluoromethyl)phenyl]propanamide], which IC50 is on record?
**A.** 50 to 200 nM

**Q.** With `CC(c1ccc2c(c1)[S+]([O-])C(C)(C)O2)N(Cc1ccccn1)C(=O)CCc1cccc(C(F)(F)F)c1` (stereo not drawn) [Example 63, N-[1-(2,2-dimethyl-3-oxido-1,3-benzoxathiol-5-yl)ethyl]-N-(pyridin-2-ylmethyl)-3-[3-(trifluoromethyl)phenyl]propanamide] as the compound, how does the IC50 read?
**A.** 1000 to 2000 nM

**Q.** Which IC50 does the source give for `CN1C2CCC1CC(N(C(=O)CS(=O)(=O)c1ccc(F)cc1)C(c1ccc(Cl)cc1)C1CC1)C2` (stereo not drawn) [Example 80, N-[(4-chlorophenyl)(cyclopropyl)methyl]-2-[(4-fluorophenyl)sulfonyl]-N-(8-methyl-8-azabicyclo[3.2.1]octan-3-yl)acetamide] here?
**A.** 200 to 1000 nM

**Q.** For `CCc1noc(C(C)N(Cc2ccccn2)C(=O)CC(C)c2ccc(F)cc2)n1` (stereo not drawn) [Example 87], which IC50 is on record?
**A.** 200 to 1000 nM

**Q.** With `COc1ccc(CN(C(=O)CC(C)S(=O)(=O)c2ccc(F)cc2)C(c2ccc(OC(F)F)cc2)C2CC2)cn1` (stereo not drawn) [Example 88, N-{cyclopropyl[4-(difluoromethoxy)phenyl]methyl}-3-[(4-fluorophenyl)sulfonyl]-N-[(6-methoxypyridin-3-yl)methyl]butanamide] as the compound, how does the IC50 read?
**A.** 50 to 200 nM

**Q.** How did the IC50 turn out when `O=C(CC1(c2ccc(F)cc2)CC1)N(Cc1cccnn1)[C@@H](c1ccc(OC(F)F)cc1)C1CC1` [Example 89, N—{(R)-cyclopropyl[4-(difluoromethoxy)phenyl]methyl}-2-[1-(4-fluorophenyl)cyclopropyl]-N-(pyridazin-3-ylmethyl)acetamide] was run?
**A.** < 50 nM

**Q.** For `O=C(N(Cc1ccccn1)[C@@H](c1ccc(OC(F)F)cc1)C1CC1)C1(S(=O)(=O)c2ccc(F)cc2)CC1` [Example 91, N-{cyclopropyl[4-(difluoromethoxy)phenyl]methyl}-1-[(4-fluorophenyl)sulfonyl]-N-(pyridin-2-ylmethyl)cyclopropanecarboxamide], which IC50 is on record?
**A.** 200 to 1000 nM

**Q.** With `O=C(N(Cc1ccccn1)[C@H](c1ccc(OC(F)F)cc1)C1CC1)C1(S(=O)(=O)c2ccc(F)cc2)CC1` [Example 92, N-{cyclopropyl[4-(difluoromethoxy)phenyl]methyl}-1-[(4-fluorophenyl)sulfonyl]-N-(pyridin-2-ylmethyl)cyclopropanecarboxamide] as the compound, how does the IC50 read?
**A.** 200 to 1000 nM

**Q.** Which IC50 does the source give for `O=C([C@@H]1C[C@H]1c1ccc(F)cc1)N(Cc1cccnn1)[C@@H](c1ccc(OC(F)F)cc1)C1CC1` [Example 97, (1R,2R)-2-(4-Fluoro-phenyl)-cyclopropanecarboxylic acid [(R)-cyclopropyl-(4-difluoromethoxy-phenyl)-methyl]-pyridazin-3-ylmethyl-amide] here?
**A.** < 50 nM

**Q.** With `O=C([C@@H]1C[C@H]1c1ccc(F)cc1)N(Cc1cccnn1)[C@H](c1ccc(OC(F)F)cc1)C1CC1` [Example 98, (1R,2R)-2-(4-Fluoro-phenyl)-cyclopropanecarboxylic acid [(S)-cyclopropyl-(4-difluoromethoxy-phenyl)-methyl]-pyridazin-3-ylmethyl-amide] as the compound, how does the IC50 read?
**A.** 50 to 200 nM

**Q.** Which IC50 does the source give for `CCS(=O)(=O)c1cccc([C@H](C2CC2)N(Cc2ccc(C(F)(F)F)nc2)C(=O)[C@@H]2C[C@H]2c2ccc(F)cc2)c1` [Example 100, (1R, 2R)-2-(4-Fluoro-phenyl)-cyclopropanecarboxylic acid [(S)-cyclopropyl-(3-ethanesulfonyl-phenyl)-methyl]-(6-trifluoromethyl-pyridin-3-ylmethyl)-amide] here?
**A.** 50 to 200 nM

**Q.** With `CC(C)(c1ccccc1)N(Cc1ccccn1)C(=O)CS(=O)(=O)c1ccc(F)cc1` [Example 101, 2-(4-Fluorophenylsulfonyl)-N-(2-phenylpropan-2-yl)-N-(pyridine-2-ylmethyl)acetamide] as the compound, how does the IC50 read?
**A.** 200 to 1000 nM

**Q.** How did the IC50 turn out when `CC(C)C(c1ccc(OC(F)F)cc1)N(Cc1ccc(F)cn1)C(=O)C1CC1c1ccc(F)cc1` (stereo not drawn) [Example 110] was run?
**A.** < 50 nM

**Q.** Which IC50 does the source give for `CC(C)C(c1ccc(OC(F)F)cc1)N(Cc1ccc(F)cn1)C(=O)C1CC1c1ccc(F)cc1` (stereo not drawn) [Example 111] here?
**A.** 50 to 200 nM

**Q.** With `CC(C)C(c1ccc(OC(F)F)cc1)N(Cc1cccnn1)C(=O)C1CC1c1ccc(F)cc1` (stereo not drawn) [Example 113] as the compound, how does the IC50 read?
**A.** 200 to 1000 nM

**Q.** Which IC50 does the source give for `CC(C)C(c1ccc(OC(F)F)cc1)N(Cc1cccnn1)C(=O)C1CC1c1ccc(F)cc1` (stereo not drawn) [Example 114] here?
**A.** 50 to 200 nM
